Data reported in patent publication US20220242812A1, “SWELL1-LRRC8 COMPLEX MODULATORS” (Washington University, priority 2019, published 2022).
Read-outs that look alike come from different tables or passages of the source.

Tests used:
[1] = test system: HFD-induced T2D mice; experiment: Metabolic phenotyping (fasting glucose, GTT, ITT) in HFD-fed T2D mice; assay type: in vivo
Experimental: All compounds were dissolved in Kolliphor® EL (Sigma, #C5135).
Mice were fasted for 6 h prior to glucose tolerance tests (GTT). Baseline glucose levels at 0 min timepoint (fasting glucose, FG) were measured from blood sample collected from tail snipping using glucometer (Bayer Healthcare LLC). Either 1 g or 0.75 g D-Glucose/kg body weight were injected (i.p.) for lean or HFD mice, respectively and glucose levels were measured at 7, 15, 30, 60, 90 and 120 min timepoints after injection. For insulin tolerance tests (ITTs), the mice were fasted for 4 h. […] All mice and treatment groups were assessed blindly while performing experiments.

[2] = target: T1, CYP 2D6 (Homo sapiens, UniProt P10635); experiment: Cytochrome P450 inhibition assay, CYP 2D6; assay type: in vitro ADME; conditions: human liver microsomes
T1 construct: Human liver microsomes were diluted in Potassium phosphate buffer; tissue Charles River Laboratory (performed the study); host or cells: human liver microsomes

[3] = test system: HFD-T2D mice, NAFLD; experiment: Liver mass, triglycerides and NAFLD histology in HFD mice; assay type: in vivo; conditions: vs vehicle
Experimental: Gross liver weights were measured and identical sections from right medial lobe of liver were dissected for further examinations. Total triglyceride content was determined by homogenizing 10-50 mg of tissue in 1.5 ml of chloroform:methanol (2:1 v/v) and centrifuged at 12000 rpm for 10 mins at 4° C. An aliquot, 20 ul, was evaporated in a 1.5 ml microcentrifuge tube for 30 mins. Triglyceride content was determined by adding 100 μl of Infinity Triglyceride Reagent (Fisher Scientific) to the dried sample followed by 30 min incubation at RT. The samples were then transferred to a 96 well plate along with standards (0-2000 mg/di) and absorbance was measured at 540 nm and the final concentration was determined by normalizing to tissue weight. For histological examination, liver sections were fixed in 10% zinc formalin and paraffin embedded for sectioning. Hematoxylin and eosin (H&E) stained sections were then assessed for steatosis grade, lobular inflammation and hepatocyte ballooning for non-alcoholic fatty liver disease (NAFLD) scoring as described (Kleiner et al., 2005; Liang et al., 2014; Rauckhorst et al., 2017).
Nonalcoholic fatty liver disease (NAFLD), like T2D, is associated with insulin resistance. NASH is an advanced form of nonalcoholic liver disease defined by three histological features: hepatic steatosis, hepatic lobular inflammation, hepatocyte damage (ballooning) and can be present without or without fibrosis. NAFLD and T2D likely share at least some pathophysiologic mechanisms because more than one-third of patients (37%) with T2D have NASH and almost one-half of patients with NASH (44%) have T2D. […] This improved metabolic state can reduce ectopic lipid deposition and NAFLD that is associated with obesity and T2D.

[4] = target: SWELL1 protein (Mus musculus, UniProt Q80WG5); conditions: for SWELL1 protein expression: applied for 96 hours (10 μM)
[5] = test system: T2D KKAy mice; experiment: Hyperinsulinemic euglycemic glucose clamp in T2D KKAy mice; assay type: in vivo
Experimental: Sterile silicone catheters (Dow-Corning) were placed into the jugular vein of mice under isoflurane anesthesia. Placed catheter was flushed with 200 U/ml heparin in saline and the free end of the catheter was directed subcutaneously via a blunted 14-gauge sterile needle and connected to a small tubing device that exited through the back of the animal. […] Hyperinsulinemic euglycemic clamps were performed on day 8 post-surgery on unrestrained, conscious mice as described elsewhere (Ayala et al., 2011; Kim et al., 2000), with some modifications. Mice were fasted for 6 h at which time insulin and glucose infusion were initiated (time 0). At 80 min prior to time 0 basal sampling was conducted, where whole-body glucose flux was traced by infusion of 0.05 μCi/min D-[3-3H]-glucose (Perkin Elmer), after a priming 5 μCi bolus for 1 minute. After the basal period, starting at time 0 D-[3-3H]-glucose was continuously infused at the 0.2 μCi/min rate and the infusion of insulin (Humulin, Eli Lilly) was initiated with a bolus of 80 mU/kg/min then followed by continuous infusion of insulin at the dose of 8 mU/kg/min throughout the assay. Fifty percent dextrose (Hospira) was infused at a variable rates (GIR) starting at the same time as the initiation of insulin infusion to maintain euglycemia at the targeted level of 150 mg/dl ([…]). Blood glucose (BG) measurements were taken every ten minutes via tail vein sampling using Contour glucometer (Bayer). After mouse reached stable BG and GIR (typically, after 75 minutes since starting the insulin infusion; for some mice, a longer time was required to achieve steady state) a single bolus of 12 μCi of [1-14C]-2-deoxy-D-glucose (Perkin Elmer) in 96 μl of saline was administered. Plasma samples (collected from centrifuged blood) for determination of tracers enrichment, glucose level and insulin concentration were obtained at times −80, −20, −10, 0, and every 10 min starting at 80 min post-insulin (5 min after [1-14C]-2-deoxy-D-glucose bolus was administered) until the conclusion of the assay at 140 min. Tissue samples were then collected from mice under isofluorane anesthesia from organs of interest (e.g., liver, heart, kidney, white adipose tissue, brown adipose tissue, gastrocnemius, soleus etc.) for determination of 1-14C1-2-deoxy-D-glucose tracer uptake. Plasma and tissue samples were processed as described previously (Ayala et al., 2011). Briefly, plasma samples were deproteinized with Ba(OH)2 and ZnSO4 and dried to eliminate tritiated water. The glucose turnover rate (mg/kg-min) was calculated as the rate of tracer infusion (dpm/min) divided by the corrected plasma glucose specific activity (dpm/mg) per kg body weight of the mouse. Fluctuations from steady state were accounted for by use of Steele's model. Plasma glucose was measured using Analox GMD9 system (Analox Technologies).
Tissue samples (˜30 mg each) were homogenized in 750 μl of 0.5% perchloric acid, neutralized with 10 M KOH and centrifuged. The supernatant was then used for first measuring the abundance of total [1-14C] signal (derived from both 1-14C-2-deoxy-D-glucose, 1-14C-2-deoxy-D-glucose 6 phosphate) and, following a precipitation step with 0.3 N […] and 0.3 N ZnSO4, for the measuring of non-phosphorylated 1-14C-2-deoxy-D-glucose. Glycogen was isolated by ethanol precipitation from 30% KOH tissue lysates, as described (Shiota, 2012). Insulin level in plasma at T0 and T140 were measured using a Stellux ELISA rodent insulin kit (Alpco).

[6] = HFD 12-18 weeks, 5 mg/kg/day x 4 days, pre- vs post-treatment
[7] = HFD-induced T2D mice, 5 mg/kg i.p. 4-10 days
[8] = after 16 weeks of HFD feeding, vs vehicle
[9] = HFD 16 weeks then intermittent dosing over 5 weeks

## CCCCC1(C2CCCC2)Cc2cc(OCCCCCC(=O)O)c(Cl)c(Cl)c2C1=O (centres unmarked) [SN-406, 6-((2-butyl-6,7-dichloro-2-cyclopentyl-1-oxo-2,3-dihydro-1H-inden-5-yl)oxy)hexanoic acid]
[1]; [6]
  Fasting blood glucose: markedly reduced
  Glucose tolerance: improved
[1]; HFD T2D mice, compared to SN071
  Insulin sensitivity based on HOMA-IR: trend toward improved
[1]; HFD T2D mice, separate experiment, compared to SN071
  Glucose tolerance: significantly improved
[2]
  IC50: > 10 µM

## CCCCC1(C2CCCC2)Cc2cc(OCCCC(=O)O)c(Cl)c(Cl)c2C1=O (centres unmarked) [SN-401, 4-((2-butyl-6,7-dichloro-2-cyclopentyl-1-oxo-2,3-dihydro-1H-inden-5-yl)oxy)butanoic acid]
[1]; HFD-T2D mice, daily i.p. for 8 weeks (FIG. 31D)
  Glucose tolerance: striking effects
[1]; [7]
  Fasting blood glucose (FG): normalized
  Glucose tolerance (GTT): normalized
  Insulin-tolerance (ITT): markedly improved
[1]; after 16 weeks of HFD feeding (ITT at 18 weeks), vs vehicle
  ITT: marked improvements
[1]; [8]
  FG: marked improvements
  GTT: marked improvements
[3]; [9]
  Absolute and body mass-normalized liver mass: reduced
  Hepatic triglyceride concentration: lower
[3]; HFD mice
  Hepatic steatosis (histologic evaluation): significantly reduced
  Hepatocyte damage (histologic evaluation): significantly reduced
  Improvement of NAFLD activity score (NAS): > 2 points
[4]
  EC50: < 1 µM
[4]; 3T3-F442A adipocytes
  SWELL1 protein expression: 1.5 fold control expression
[4]; 3T3-F442A preadipocytes
  SWELL1 protein expression: 3 fold control expression
[5]; T2D KKAy mice, 5 mg/kg i.p. 4 days, vs vehicle
  Glucose-infusion rate (GIR) to maintain euglycemia: higher
[5]; T2D KKAy mice, Basal
  Reduction of hepatic glucose production (Ra) at baseline: 40%
[5]; T2D KKAy mice, Clamp
  Suppression of hepatic glucose production (Ra) during glucose/insulin infusion: 75%
[5]; adipose
  Glucose incorporation into glycogen: markedly increased
[5]; brown fat
  Insulin-stimulated 2-DG uptake: not
[5]; gonadal white adipose tissue (gWAT)
  Insulin-stimulated 2-DG uptake: enhanced
[5]; inguinal white adipose tissue (iWAT)
  Insulin-stimulated 2-DG uptake: enhanced
[5]; liver
  Glucose incorporation into glycogen: markedly increased
[5]; myocardium
  Insulin-stimulated 2-DG uptake: enhanced
[5]; skeletal muscle
  Glucose incorporation into glycogen: markedly increased
  Insulin-stimulated 2-DG uptake: not
[2]
  IC50: > 10 µM
